Two molecules from ChEMBL document CHEMBL3045717, “Synthesis and pharmacological properties of some novel pyrazolidine and pyrazole derivatives” (2012) can be followed below.

The structures appear in SMILES notation.

The first test deals with Candida albicans. Put plainly: Antifungal activity against Candida albicans at 50 ug/ml after 48 to 72 hr by agar diffusion cup-plate method. Format: functional. As to conditions: read-out: DIZ.
With `O=C1CC(=O)N(c2ccc([N+](=O)[O-])cc2[N+](=O)[O-])N1`, the zone of inhibition at 50 µg/mL was determined as 6.2 mm.

Regarding `CC(=O)N1C(=O)CC(=O)N1c1ccc([N+](=O)[O-])cc1[N+](=O)[O-]`, the zone of inhibition at 50 µg/mL amounted to 13.2 mm.

The subject of another test is Staphylococcus aureus. Put plainly: Antibacterial activity against Staphylococcus aureus at 200 ug/ml after 24 hr by agar diffusion cup-plate method. Format: functional. The following applies: read-out: DIZ.
Take `O=C1CC(=O)N(c2ccc([N+](=O)[O-])cc2[N+](=O)[O-])N1`: the zone of inhibition at 200 µg/mL stood at 18.1 mm.

With `CC(=O)N1C(=O)CC(=O)N1c1ccc([N+](=O)[O-])cc1[N+](=O)[O-]`, the zone of inhibition at 200 µg/mL was 26.1 mm.

A further test relates to Staphylococcus aureus. As to the kind of experiment: Antibacterial activity against Staphylococcus aureus at 50 ug/ml after 24 hr by agar diffusion cup-plate method. Format: functional. As to conditions: read-out: DIZ.
In the case of `O=C1CC(=O)N(c2ccc([N+](=O)[O-])cc2[N+](=O)[O-])N1`, the zone of inhibition at 50 µg/mL was 8.4 mm.

`CC(=O)N1C(=O)CC(=O)N1c1ccc([N+](=O)[O-])cc1[N+](=O)[O-]`: the zone of inhibition at 50 µg/mL came to 10 mm.

The next test relates to Candida albicans. Put plainly: Antifungal activity against Candida albicans at 200 ug/ml after 48 to 72 hr by agar diffusion cup-plate method. Format: functional. The following applies: read-out: DIZ.
`O=C1CC(=O)N(c2ccc([N+](=O)[O-])cc2[N+](=O)[O-])N1`: the zone of inhibition at 200 µg/mL was 10.2 mm.

In the case of `CC(=O)N1C(=O)CC(=O)N1c1ccc([N+](=O)[O-])cc1[N+](=O)[O-]`, the zone of inhibition at 200 µg/mL turned out to be 24.2 mm.

Another test has as its system Bacillus subtilis. Put plainly: Antibacterial activity against Bacillus subtilis at 100 ug/ml after 24 hr by agar diffusion cup plate method. The following applies: read-out: DIZ. Format: functional.
As to `O=C1CC(=O)N(c2ccc([N+](=O)[O-])cc2[N+](=O)[O-])N1`, the zone of inhibition at 100 µg/mL stood at 12 mm.

Consider `CC(=O)N1C(=O)CC(=O)N1c1ccc([N+](=O)[O-])cc1[N+](=O)[O-]`, for which the zone of inhibition at 100 µg/mL is 18.9 mm.

In another test the test system is Pseudomonas aeruginosa. Put plainly: Antibacterial activity against Pseudomonas aeruginosa at 50 ug/ml after 24 hr by agar diffusion cup-plate method. Format: functional. As to conditions: read-out: DIZ.
On to `O=C1CC(=O)N(c2ccc([N+](=O)[O-])cc2[N+](=O)[O-])N1`, for which the zone of inhibition at 50 µg/mL came to 12.1 mm.

For the molecule `CC(=O)N1C(=O)CC(=O)N1c1ccc([N+](=O)[O-])cc1[N+](=O)[O-]`, the zone of inhibition at 50 µg/mL is 18.2 mm.

The test system of the next test is Candida albicans. Put plainly: Antifungal activity against Candida albicans at 100 ug/ml after 48 to 72 hr by agar diffusion cup-plate method. Format: functional. The following applies: read-out: DIZ.
In the case of `O=C1CC(=O)N(c2ccc([N+](=O)[O-])cc2[N+](=O)[O-])N1`, the zone of inhibition at 100 µg/mL stood at 10.1 mm.

`CC(=O)N1C(=O)CC(=O)N1c1ccc([N+](=O)[O-])cc1[N+](=O)[O-]`: the zone of inhibition at 100 µg/mL stood at 18.2 mm.

The next test has as its system Escherichia coli. As to the kind of experiment: Antibacterial activity against Escherichia coli at 200 ug/ml after 24 hr by agar diffusion cup-plate method. As to conditions: read-out: DIZ. Format: functional.
For the molecule `O=C1CC(=O)N(c2ccc([N+](=O)[O-])cc2[N+](=O)[O-])N1`, the zone of inhibition at 200 µg/mL was 20.2 mm.

For the molecule `CC(=O)N1C(=O)CC(=O)N1c1ccc([N+](=O)[O-])cc1[N+](=O)[O-]`, the zone of inhibition at 200 µg/mL turned out to be 30.6 mm.

A further test concerns Pseudomonas aeruginosa. As to the kind of experiment: Antibacterial activity against Pseudomonas aeruginosa at 100 ug/ml after 24 hr by agar diffusion cup-plate method. The following applies: read-out: DIZ. Format: functional.
As to `O=C1CC(=O)N(c2ccc([N+](=O)[O-])cc2[N+](=O)[O-])N1`, the zone of inhibition at 100 µg/mL is 13.2 mm.

In the case of `CC(=O)N1C(=O)CC(=O)N1c1ccc([N+](=O)[O-])cc1[N+](=O)[O-]`, the zone of inhibition at 100 µg/mL is 22.8 mm.

In the next test the test system is Escherichia coli. Put plainly: Antibacterial activity against Escherichia coli at 50 ug/ml after 24 hr by agar diffusion cup-plate method. It counts as functional. As to conditions: read-out: DIZ.
For `O=C1CC(=O)N(c2ccc([N+](=O)[O-])cc2[N+](=O)[O-])N1`, the zone of inhibition at 50 µg/mL is 16.2 mm.

Consider `CC(=O)N1C(=O)CC(=O)N1c1ccc([N+](=O)[O-])cc1[N+](=O)[O-]`, for which the zone of inhibition at 50 µg/mL stood at 13.2 mm.

The subject of a further test is Aspergillus niger. As to the kind of experiment: Antifungal activity against Aspergillus niger at 50 ug/ml after 48 to 72 hr by agar diffusion cup-plate method. It counts as functional. The following applies: read-out: DIZ.
Turning to `O=C1CC(=O)N(c2ccc([N+](=O)[O-])cc2[N+](=O)[O-])N1`, the zone of inhibition at 50 µg/mL stood at 10.1 mm.

On to `CC(=O)N1C(=O)CC(=O)N1c1ccc([N+](=O)[O-])cc1[N+](=O)[O-]`, for which the zone of inhibition at 50 µg/mL stood at 12.2 mm.

For another test, the system named is Aspergillus niger. Put plainly: Antifungal activity against Aspergillus niger at 100 ug/ml after 48 to 72 hr by agar diffusion cup-plate method. It counts as functional. As to conditions: read-out: DIZ.
Regarding `O=C1CC(=O)N(c2ccc([N+](=O)[O-])cc2[N+](=O)[O-])N1`, the zone of inhibition at 100 µg/mL is 12.2 mm.

Turning to `CC(=O)N1C(=O)CC(=O)N1c1ccc([N+](=O)[O-])cc1[N+](=O)[O-]`, the zone of inhibition at 100 µg/mL is 16.8 mm.

Another test concerns Pseudomonas aeruginosa. Put plainly: Antibacterial activity against Pseudomonas aeruginosa at 200 ug/ml after 24 hr by agar diffusion cup-plate method. It counts as functional. As to conditions: read-out: DIZ.
Turning to `O=C1CC(=O)N(c2ccc([N+](=O)[O-])cc2[N+](=O)[O-])N1`, the zone of inhibition at 200 µg/mL was 16.1 mm.

For `CC(=O)N1C(=O)CC(=O)N1c1ccc([N+](=O)[O-])cc1[N+](=O)[O-]`, the zone of inhibition at 200 µg/mL came to 28 mm.

The subject of the next test is Bacillus subtilis. Put plainly: Antibacterial activity against Bacillus subtilis at 50 ug/ml after 24 hr by agar diffusion cup plate method. It counts as functional. As to conditions: read-out: DIZ.
Consider `O=C1CC(=O)N(c2ccc([N+](=O)[O-])cc2[N+](=O)[O-])N1`, for which the zone of inhibition at 50 µg/mL was 10.2 mm.

For the molecule `CC(=O)N1C(=O)CC(=O)N1c1ccc([N+](=O)[O-])cc1[N+](=O)[O-]`, the zone of inhibition at 50 µg/mL came to 10.2 mm.

For another test, the system named is Aspergillus niger. As to the kind of experiment: Antifungal activity against Aspergillus niger at 200 ug/ml after 48 to 72 hr by agar diffusion cup-plate method. As to conditions: read-out: DIZ. Format: functional.
For the molecule `O=C1CC(=O)N(c2ccc([N+](=O)[O-])cc2[N+](=O)[O-])N1`, the zone of inhibition at 200 µg/mL was found to be 14.1 mm.

As for `CC(=O)N1C(=O)CC(=O)N1c1ccc([N+](=O)[O-])cc1[N+](=O)[O-]`, the zone of inhibition at 200 µg/mL was 24 mm.

The subject of another test is Bacillus subtilis. As to the kind of experiment: Antibacterial activity against Bacillus subtilis at 200 ug/ml after 24 hr by agar diffusion cup plate method. It counts as functional. As to conditions: read-out: DIZ.
As for `O=C1CC(=O)N(c2ccc([N+](=O)[O-])cc2[N+](=O)[O-])N1`, the zone of inhibition at 200 µg/mL is 16 mm.

As for `CC(=O)N1C(=O)CC(=O)N1c1ccc([N+](=O)[O-])cc1[N+](=O)[O-]`, the zone of inhibition at 200 µg/mL was 25.1 mm.

In the next test the test system is Staphylococcus aureus. Put plainly: Antibacterial activity against Staphylococcus aureus at 100 ug/ml after 24 hr by agar diffusion cup-plate method. Format: functional. The following applies: read-out: DIZ.
As for `O=C1CC(=O)N(c2ccc([N+](=O)[O-])cc2[N+](=O)[O-])N1`, the zone of inhibition at 100 µg/mL was determined as 12 mm.

For the molecule `CC(=O)N1C(=O)CC(=O)N1c1ccc([N+](=O)[O-])cc1[N+](=O)[O-]`, the zone of inhibition at 100 µg/mL was 22 mm.

A further test deals with Escherichia coli. As to the kind of experiment: Antibacterial activity against Escherichia coli at 100 ug/ml after 24 hr by agar diffusion cup-plate method. Format: functional. As to conditions: read-out: DIZ.
With `O=C1CC(=O)N(c2ccc([N+](=O)[O-])cc2[N+](=O)[O-])N1`, the zone of inhibition at 100 µg/mL worked out at 18.1 mm.

In the case of `CC(=O)N1C(=O)CC(=O)N1c1ccc([N+](=O)[O-])cc1[N+](=O)[O-]`, the zone of inhibition at 100 µg/mL was 15.2 mm.
